According to US20250281628A1, “COMPOSITE NANOPARTICULATE MINERALIZED COLLAGEN GLYCOSAMINOGLYCAN MATERIALS WITH TIME RELEASE ANTI-RESORPTIVE FACTORS” (The Regents of the University of California, priority 2021, published 2025):

Assays:
[1] = tested on: canonical BMP receptor signaling pathway; experiment: Inhibitor study with DMH1, western blot of hMSCs on scaffolds; type: cell-based, human; details: 50 μM
Method: (§1) Osteogenic differentiation of hMSCs on Col-GAG and MC-GAG: 3×10^5 hMSCs were seeded onto 8 mm discs of CG-GAG and MC-GAG scaffolds in proliferation media. 24 h after seeding, media was switched to osteogenic differentiation media consisting of 10 mM β-glycerophosphate, 50 μg/mL ascorbic acid, and 0.1 μM dexamethasone. For inhibitor studies, scaffolds were treated or untreated with dorsomorphin homologue 1 (DMH1; Sigma-Aldrich) or PD98059 (Cell Signaling Technologies, Beverly, MA) separately, all at a concentration of 50 μM. Fresh DMH1 and PD98059 were added to each media change every 3 days.
(§2) Western blot: Lysates were prepared from scaffolds at 0, 4, 14, and 24 days of culture using SDS sample buffer and equal amounts were subjected to 4-20% SDS-PAGE (Bio-Rad, Hercules, CA). Western blot analysis was carried out with antibodies against OPG, RANKL, phosphorylated small mothers against decapentaplegic 1/5 (p-Smad1/5), total Smad5, phosphorylated extracellular regulated kinase 1/2 (p-ERK1/2), total ERK1/2, and […] followed by 1:4000 dilutions of HRP-conjugated IgG antibodies (Bio-Rad, Hercules, CA) and an enhanced chemiluminescent substrate (Thermo Scientific, Rockford, IL). For detection of p-Smad1/5 and total Smad5, 10 μg of lysate was loaded per lane. For detection of OPG, RANKL, p-ERK1/2, total ERK1/2, and β-actin, 20 μg of lysate was loaded per lane. All antibodies were obtained from Cell Signaling Technologies (Beverly, MA) with the exception of RANKL, OPG, and β-actin antibodies which were obtained from Santa Cruz Biotechnology (Santa Cruz, CA). Imaging analysis was carried out using ImageJ (NIH, Bethesda, MD).
(§3) To characterize the mechanism responsible for differential OPG expression osteogenically differentiated hMSCs cultured on MC-GAG versus Col-GAG, DMH1, and PD98059 small molecule inhibitors were utilized for the canonical BMP receptor and MEK1/ERK1/2 signaling pathways, respectively (FIG. 11). […] Due to the massive upregulation of Smad1/5 phosphorylation in MC-GAG, a smaller inhibition was noted compared to Col-GAG. […] In contrast, OPG expression was increased in the presence of DMH1 on both Col-GAG and MC-GAG, particularly at the day 14 timepoint.

[2] = tested on: MEK1/ERK1/2 signaling pathway; experiment: Inhibitor study with PD98059, western blot of hMSCs on scaffolds; type: cell-based, human; details: 50 μM
Method: as §1, §2, §3

Compound	phosphorylated ERK1/2 ([1]; MC-GAG at day 4)	OPG expression ([1]; both Col-GAG and MC-GAG, particularly day 14)	total Smad5, total ERK1/2, RANKL, or actin ([1]; hMSCs on Col-GAG and MC-GAG)	phosphorylation of Smad1/5 ([1]; hMSCs on either material)	phosphorylated Smad1/5, total Smad5, total ERK1/2, or actin [2]	phosphorylated ERK1/2 ([2]; all timepoints, either material)	OPG protein expression ([2]; hMSCs on Col-GAG)	RANKL expression ([2]; hMSCs on Col-GAG)	OPG protein expression ([2]; hMSCs on MC-GAG, all timepoints)	RANKL expression ([2]; hMSCs on MC-GAG, particularly day 24)
CC(C)Oc1ccc(-c2cnc3c(-c4ccnc5ccccc45)cnn3c2)cc1 [DMH1, dorsomorphin homologue 1]	small elevation	increased	No differences	partially decreased at all timepoints	–	–	–	–	–	–
COc1cccc(-c2cc(=O)c3ccccc3o2)c1N [PD98059]	–	–	–	–	no effects	decreased	no differences were detected	no differences were detected	decreased	downregulated
